According to patent US9045524B2, “Selective caspase inhibitors and uses thereof” (NOVAGENESIS FOUNDATION, priority 2009, dated 2015):
Like-named read-outs stand apart in the source and are kept apart here.

Experiments:
Caspase-1 = Caspase-1 (Homo sapiens (Human), UniProt P29466); experiment: Caspase-1 Inhibitor Drug Screening Kit, fluorometric (AFC liberation); assay type: biochemical; conditions: for IC50: 30-minute incubation at 37° C., approximations of the average values, read-out: Caspase enzymatic activity, IC50 (uM) Caspase 1
Chain of Caspase-1 (P29466 120-404): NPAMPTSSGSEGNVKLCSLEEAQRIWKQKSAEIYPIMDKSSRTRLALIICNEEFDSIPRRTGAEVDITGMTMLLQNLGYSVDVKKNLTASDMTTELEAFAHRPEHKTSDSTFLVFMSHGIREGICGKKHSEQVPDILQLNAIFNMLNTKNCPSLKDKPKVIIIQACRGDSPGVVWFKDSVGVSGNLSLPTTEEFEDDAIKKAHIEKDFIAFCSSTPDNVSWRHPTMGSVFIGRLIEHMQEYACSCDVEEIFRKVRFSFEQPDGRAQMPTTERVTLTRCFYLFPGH
Procedure: (§1) The level of inhibition of caspase-1, -3, -5, -7, -9 activity was determined by comparison of the relative fluorescence intensity in samples with or without the compound.

[1] = system: proteolytic cleavage of PARP (poly ADP-ribose polymerase) in Hela cells; experiment: Inhibition of staurosporine-induced PARP cleavage in live Hela cells; assay type: cell-based; conditions: for inhibition at 50 µM: Homo sapiens, HeLa
Procedure: To test the efficacy of caspase-3 inhibitors at the cellular level, the ability of selected compounds to inhibit the proteolytic cleavage of PARP (poly ADP-ribose polymerase) was evaluated in live Hela cells.
Briefly, in this assay Hela cells are seeded in 96 well plates and incubated for 4 hours with staurosporine, a well characterized inducer of apoptosis, alone or together with different concentrations of compound (50, 25, 10 and 3 uM). After formaldehyde-based fixation, the cells are stained with a fluorescein-labeled anti-cleaved PARP antibody (Cell signaling, Cat#: 9547) and counterstained with Hoechst33342 (Invitrogen, Cat#: H3570) to mark all nuclei. Fluorescence images are taken on a Cellomics™ microscope system (Thermo Scientific, Pittsburgh, USA) with the Hoechst stain in the blue channel and the cleaved PARP antibody stain in the green channel. The percentage of cleaved PARP positive cells is determined by calculating the ratio between nuclei with a cleaved PARP antibody staining above a certain threshold and all (Hoechst positive) nuclei. The efficacy of caspase-3 inhibition is determined by calculating the ratio between cleaved PARP positive cells after staurosporine incubation together with compounds and staurosporine incubation without compounds.

EAE in C57BL/6 mice = experiment: Chronic EAE mouse model (MOG35-55 immunization), daily clinical score and body weight; assay type: in vivo; design: key to Delay in onset of the disease / Reduction in severity of the disease / Reduction in body weight loss: +++: high level improvement; ++: moderate improvement; +: small improvement; −: no improvement; conditions: for Cumulative clinical score / Disease onset / Loss of body weight / clinical severity of the disease / maximal clinical score: FIG. 1, i.p. from day 10 to 16 post immunization, versus placebo; for Delay in onset of the disease / Reduction in body weight loss / Reduction in severity of the disease: average overall effects on the EAE model, i.p.
From the text: The aim of this study was to verify the effectiveness of compounds in a chronic mouse animal model of EAE. EAE is a good proof-of-principle model of neurodegeneration since it encompasses degeneration or destruction of practically all the cells in the central nervous system, includes most major immunomodulatory components, and is able to maintain normal innate regenerative functions in the animal. This is a standard model (Antel J P et al., J Neurosci Res. 1997, 50: 345-353) used mainly to mimic the course evolution of Multiple Sclerosis (MS) in humans, and is commonly used for studying disease mechanisms and testing potential therapies. EAE is induced by immunization with myelin proteins, leading to development of myelin-specific T cells. These autoreactive T cells traffic into CNS parenchyma where they initiate an inflammatory cascade through recruitment of other cells such as monocytes and neutrophils. Accumulation of immune cells within CNS leads to myelin damage, axonal loss and clinical deficit in affected animals. EAE can be induced in a variety of species and strains of animals [mice, Rat, marmoset monkey, rhesus macaques] using various CNS antigens [Myelin Oligodendrocyte Glycoprotein (MOG), proteolipid protein (PLP) and myelin basic protein (MBP)]. Seven to 8 week old female C57BL/6 mice were purchased from Charles River Laboratories, and housed at MISPRO™ animal facility for one week before experimentation for adaptation to the new environment. All proper animal experimentation and ethics approvals were obtained prior to the start of any experiments. Mice were immunized subcutaneously with 100 μg of MOG35-55 (Sheldon Biotechnology Centre, McGill University) in CFA containing 5 mg/ml of desiccated (killed and dried) Mycobacterium tuberculosis H37Ra (Difco, Inc), at two sites on the back. The mice were then injected with 200 ng of pertussis toxin (List Biological Laboratories, Inc) in PBS intraperitoneally on days 0 and 2 using 25 gauge needles and scored daily using an EAE clinical scale as detailed below (Touil T et al., J Neurol Sci. 2008, 271:191-202; Antel J P et al., 1997, supra; Owens T et al., Curr Pharm Des. 2005, 1:1031-1037).
EAE was clinically assessed throughout the experiments by daily scoring using a scale from 0 to 5 as follows: partial limp tail, 0.5; full limp tail, 1; limp tail and waddling gait, 1.5; paralysis of one hind limb, 2; paralysis of one hind limb and partial paralysis of other hind limb, 2.5; paralysis of both hind limbs, 3; ascending paralysis, 3.5; paralysis of trunk, 4; moribund, 4.5; death, 5. In all the EAE models a body weight loss is always associated with the clinical signs. This body weight loss is associated with the loss of the function and the paralysis of the muscle (atrophy inducing loss of weight). For animals showing a clinical sign of 2 or more, the food and the water were presented inside the cage to facilitate eating and drinking.
At the onset of clinical signs of EAE, the mice were treated with 200 μl of Compound 51, 53, 57, 59, 101, 104, 105, 111 or 123 dissolved in 2.5% Dimethyl sulfoxide (DMSO) in PBS, while placebo groups were treated with 2.5% Dimethyl sulfoxide (DMSO) in PBS only, by intraperitoneal injection at different time of the clinical evolution.

Glo3/7 = Glo3/7 assay; assay type: biochemical
Caspase-9 = Caspase-9 (Homo sapiens (Human), UniProt P55211); experiment: Caspase-9 Inhibitor Drug Screening Kit, fluorometric (AFC liberation); assay type: biochemical
Chain of Caspase-9 (P55211 whole entry): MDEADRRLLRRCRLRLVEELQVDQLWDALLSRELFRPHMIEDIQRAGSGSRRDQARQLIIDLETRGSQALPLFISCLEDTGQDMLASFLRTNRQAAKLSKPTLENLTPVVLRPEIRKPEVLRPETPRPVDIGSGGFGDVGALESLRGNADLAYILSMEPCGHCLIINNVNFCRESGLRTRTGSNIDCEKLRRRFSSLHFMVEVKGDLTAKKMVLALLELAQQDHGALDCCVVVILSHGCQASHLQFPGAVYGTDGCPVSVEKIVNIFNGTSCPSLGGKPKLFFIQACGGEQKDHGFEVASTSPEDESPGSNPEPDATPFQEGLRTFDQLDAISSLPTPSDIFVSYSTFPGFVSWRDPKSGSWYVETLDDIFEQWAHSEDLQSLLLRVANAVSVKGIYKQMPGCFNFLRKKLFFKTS
Procedure: as §1

Caspase-7 = Caspase-7 (Homo sapiens (Human), UniProt P55210); experiment: Caspase-7 Inhibitor Drug Screening Kit, fluorometric (AFC liberation); assay type: biochemical
Chain of Caspase-7 (P55210 whole entry): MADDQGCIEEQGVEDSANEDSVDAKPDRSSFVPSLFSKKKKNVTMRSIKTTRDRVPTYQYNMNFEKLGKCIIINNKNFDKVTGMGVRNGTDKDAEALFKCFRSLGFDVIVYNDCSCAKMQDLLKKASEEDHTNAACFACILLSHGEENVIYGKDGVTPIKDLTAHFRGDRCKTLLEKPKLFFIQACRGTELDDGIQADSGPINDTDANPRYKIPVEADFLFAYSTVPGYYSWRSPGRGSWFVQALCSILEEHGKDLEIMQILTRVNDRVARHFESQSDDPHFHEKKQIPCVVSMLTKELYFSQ
Procedure: as §1

Caspase-5 = Caspase-5 (Homo sapiens (Human), UniProt P51878); experiment: Caspase-5 Inhibitor Drug Screening Kit, fluorometric (AFC liberation); assay type: biochemical; conditions: 30-minute incubation at 37° C.; approximations of the average values; read-out: Caspase enzymatic activity, IC50 (uM) Caspase 5
Chain of Caspase-5 (P51878 137-434): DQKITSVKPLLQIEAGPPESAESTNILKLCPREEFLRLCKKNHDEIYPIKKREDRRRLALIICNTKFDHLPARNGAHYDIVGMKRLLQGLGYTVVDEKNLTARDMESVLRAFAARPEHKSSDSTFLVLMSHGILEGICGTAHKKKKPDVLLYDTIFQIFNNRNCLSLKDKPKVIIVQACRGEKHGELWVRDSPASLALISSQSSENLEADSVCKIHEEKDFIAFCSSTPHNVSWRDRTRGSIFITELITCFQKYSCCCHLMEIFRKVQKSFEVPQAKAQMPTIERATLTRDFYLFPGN
Procedure: as §1

Caspase-3 = Caspase-3 (Homo sapiens (Human), UniProt P42574); experiment: Caspase-3 Inhibitor Drug Screening Kit, fluorometric (AFC liberation); assay type: biochemical
Chain of Caspase-3 (P42574 29-277): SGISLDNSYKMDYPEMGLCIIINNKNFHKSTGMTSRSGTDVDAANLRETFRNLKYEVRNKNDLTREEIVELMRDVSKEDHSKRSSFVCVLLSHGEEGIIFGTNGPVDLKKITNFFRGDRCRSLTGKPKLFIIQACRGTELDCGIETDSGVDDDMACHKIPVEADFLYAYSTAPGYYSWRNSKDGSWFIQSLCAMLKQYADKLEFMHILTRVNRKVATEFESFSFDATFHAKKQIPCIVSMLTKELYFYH
Procedure: as §1

[2] = 4 h, read-out: % inhibition of PARP cleavage at 50 uM compound, Hela cells, staurosporine 4 hours, 50 uM compound
[3] = 30-minute incubation at 37° C., approximations of the average values, read-out: Caspase enzymatic activity, IC50 (uM) Caspase 9
[4] = 30-minute incubation at 37° C., approximations of the average values, read-out: Caspase enzymatic activity, IC50 (uM) Caspase 7
[5] = 30-minute incubation at 37° C., approximations of the average values, read-out: Caspase enzymatic activity, IC50 (uM) Caspase 3
[6] = Hela cells, 50 uM, read-out: % of inhibition with compound relative to DEVDFMK

Row | Compound | IC50 (Caspase-1) [µM] | inhibition at 50 µM [1, 2] [%] | Delay in onset of the disease (EAE in C57BL/6 mice) | Reduction in body weight loss (EAE in C57BL/6 mice) | Reduction in severity of the disease (EAE in C57BL/6 mice) | IC50 (Glo3/7) [µM] | IC50 (Caspase-9; [3]) [µM] | IC50 (Caspase-7; [4]) [µM] | IC50 (Caspase-5) [µM] | IC50 (Caspase-3; [5]) [µM] | inhibition at 50 µM [1, 6] [%] | further results
1 | COC(=O)C[C@@H](/C=C/S(C)(=O)=O)NC(=O)[C@@H](NC(=O)[C@@H](NC(=O)[C@H](CC(=O)OC)NC(=O)OCc1ccccc1)C1Cc2ccccc2C1)C(C)C [Compound 51, Z-Asp(β-methyl)-Indanylglycine-Val-Asp(β-methyl)methyl vinyl sulfone] | > 3 | > 50 | ++ | +++ | ++ | > 50 | > 3 | > 3 | > 3 | 1 |  | Cumulative clinical score (EAE in C57BL/6 mice): significantly lower compared to placebo; Disease onset (EAE in C57BL/6 mice): delayed; Loss of body weight (EAE in C57BL/6 mice): less than the placebo; clinical severity of the disease (EAE in C57BL/6 mice): reduced significantly; maximal clinical score (EAE in C57BL/6 mice): significantly lower compared to placebo
2 | CC(C)[C@H](NC(=O)[C@@H](NC(=O)[C@H](CC(=O)O)NC(=O)OCc1ccccc1)C1Cc2ccccc2C1)C(=O)N[C@H](/C=C/S(C)(=O)=O)CC(=O)O [Compound 57, Z-Asp-Indanylglycine-Val-Aspmethyl vinyl sulfone] | 0.9 | > 50 | + | + | + | 0.1 | > 3.33 | 0.2 | > 3.33 | 0.03 |  | fold less efficiency against caspase-1 than against group III caspases (Caspase-1): about 29 fold; Cumulative clinical score (EAE in C57BL/6 mice): reduced the cumulative score; Disease onset (EAE in C57BL/6 mice): without delaying the onset of the disease; Loss of body weight (EAE in C57BL/6 mice): did not show and difference compared to placebo; clinical severity of the disease (EAE in C57BL/6 mice): reduced also the clinical severity of the disease; maximal clinical score (EAE in C57BL/6 mice): without any significant effect on the maximal score; IC50 (Caspase-7; read-out: IC50 caspase-7): 0.18 to 0.3 µM; IC50 (Caspase-3; read-out: IC50 caspase-3): 0.03 to 0.09 µM
3 | CC(C)[C@H](NC(=O)[C@H](CCC(=O)O)NC(=O)[C@H](CC(=O)O)NC(=O)OCc1ccccc1)C(=O)N[C@H](/C=C/S(C)(=O)=O)CC(=O)O [Compound 59, Z-Asp-Glu-Val-Aspmethyl vinyl sulfone] | 1.4 |  | ++ | ++ | ++ | 0.09 | 0.5 | 0.04 | > 3.33 | 0.02 |  | effectivity in inhibiting PARP cleavage ([1]; Hela cells, staurosporine): showing effectivity especially relative to DEVD-fmk; IC50 (Caspase-9; read-out: IC50 caspase-9): 0.509 µM; IC50 (Caspase-7; read-out: IC50 caspase-7): 0.042 µM; IC50 (Caspase-3; read-out: IC50 caspase-3): 0.02 µM
4 | CC(C)[C@H](NC(=O)[C@H](Cc1ccc(O)cc1)NC(=O)[C@H](CC(=O)O)NC(=O)OCc1ccccc1)C(=O)N[C@H](/C=C/S(C)(=O)=O)CC(=O)O [Compound 76, Z-Asp-Tyr-Val-Aspmethyl vinyl sulfone] | > 3.33 | > 50 |  |  |  | 0.04 | > 3.33 | 0.7 | > 3.33 | 0.03 |  | 
5 | CC(C)[C@H](NC(=O)[C@H](CCC(=O)O)NC(=O)[C@H](Cc1ccc(O)cc1)NC(=O)OCc1ccccc1)C(=O)N[C@H](/C=C/S(C)(=O)=O)CC(=O)O [Compound 82] | 0.5 | 15 |  |  |  | 3.7 | 1.6 | > 5 | > 3 | 0.3 | 15 | 
6 | CC(C)[C@H](NC(=O)[C@H](Cc1ccccn1)NC(=O)[C@H](CC(=O)O)NC(=O)OCc1ccccc1)C(=O)N[C@H](/C=C/S(=O)(=O)c1ccccc1)CC(=O)O [Compound 85] | > 3.33 |  |  |  |  | 0.3 | > 3.33 | 1 | > 3.33 | 0.03 | 45 | 
7 | CS(=O)(=O)/C=C/[C@@H](N)CC(=O)O.Cc1ccc(S(=O)(=O)O)cc1 [Compound 93, AspVSmethyl] | > 3.33 | 15 |  |  |  | > 50 | > 3.33 | > 3.33 | > 3.33 | > 10 | 25 | activity against caspase-3 (Caspase-3): devoid of any activity
8 | CC(C)[C@H](NC(=O)[C@H](Cc1ccc(O)cc1)NC(=O)OCc1ccccc1)C(=O)N[C@@H](C)C(=O)N[C@H](/C=C/S(=O)(=O)c1ccccc1)CC(=O)O [Compound 96, z-Tyr-Val-Ala-AspVS phenyl] | 1.3 | 1 |  |  |  | > 50 | > 10 | > 10 | > 3.33 | > 10 | 2 | 
